# Reference: the supplement of paper PMC8497498
# Counter-ions that a name gives are not always drawn.
# Key:
# [1] = test system: Plasmodium falciparum 3D7 asexual blood stage; test: EC50 asexual blood stage growth; details: serum: 0.5% AlbuMAX
# Experimental: (§1)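 The Reference Compound Library was tested by 10-point 3-fold dose response against P. cynomolgi Berok K4 asexual blood stages (SYBR proliferation assay, mefloquine background control). Culture medium contained 0.5% AlbuMAX or 20% M. fascicularis serum. P. falciparum 3D7 was tested in a 72-h SYBR Green assay with 0.5% AlbuMAX. Values are geometric mean EC50 over independent experiments; 10 uM is the top dose.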
# [2] = test system: Plasmodium cynomolgi Berok K4 asexual blood stage; test: EC50 asexual blood stage growth
# Experimental: as §1
# [3] = test system: Plasmodium vivax liver stage (primary human hepatocyte culture)
# Experimental: (§2)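 Dose-response of P. vivax liver stages in primary human hepatocytes, with 8 points (10 uM-[…], v1) or 12 points in duplicate (50 uM-280 pM, v2). Read-out is high-content imaging of schizont net growth area, hypnozoite quantity and hepatic nuclei. EC50 and CC20 (20% nuclei loss) were fitted in CDD Vault from the highest-quality independent experiment; toxic-dose bell-shaped points were masked. '>' marks the highest concentration with less than 50% activity, and ND means a non-sigmoidal curve.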
# [4] = test system: primary human hepatocytes; test: CC20 hepatic nuclei (20% reduction); higher = less toxic
# Experimental: as §2
# [5] = test system: Plasmodium vivax liver stage (primary human hepatocyte culture); test: maximum inhibition of schizont net growth area; higher = more active
# Experimental: as §2
# [6] = serum: 20% M. fascicularis serum
# [7] = P. vivax isolate: Pv923, hepatocyte lot: BGW, assay mode: Radical Cure, 8-day (treatment from day 5 post-infection)
# [8] = P. vivax isolate: Pv914, hepatocyte lot: BGW, assay mode: Prophylactic, 6-day
# [9] = P. vivax isolate: Pv922, hepatocyte lot: BGW, assay mode: Radical Cure, 8-day (treatment from day 5 post-infection)
# [10] = P. vivax isolate: Pv728, hepatocyte lot: BGW, assay mode: Radical Cure, 8-day (treatment from day 5 post-infection)
# [11] = P. vivax isolate: Pv357, hepatocyte lot: UBV, assay mode: Radical Cure, 8-day (treatment from day 5 post-infection)
# [12] = P. vivax isolate: Pv360, hepatocyte lot: UBV, assay mode: Radical Cure, 8-day (treatment from day 5 post-infection)
# [13] = P. vivax isolate: Pv772, hepatocyte lot: BGW, assay mode: Prophylactic, 6-day
# [14] = P. vivax isolate: IVS17-02, hepatocyte lot: PDC, assay mode: Radical Cure, 8-day (treatment from day 5 post-infection)
# [15] = P. vivax isolate: Pv360, hepatocyte lot: UBV, assay mode: Prophylactic, 6-day
# [16] = P. vivax isolate: Pv458, hepatocyte lot: UBV, assay mode: Radical Cure, 8-day (treatment from day 5 post-infection)
# [17] = P. vivax isolate: Pv914, hepatocyte lot: BGW, assay mode: Radical Cure, 8-day (treatment from day 5 post-infection)
# [18] = P. vivax isolate: Pv836, hepatocyte lot: BGW, assay mode: Radical Cure, 8-day (treatment from day 5 post-infection)
compound,measurement,setting,value
CC(C)(C)NCc1cc(Nc2ccnc3cc(Cl)ccc23)ccc1F,EC50 asexual blood stage growth,[1],0.0098 µM
same,EC50 asexual blood stage growth,[2]; serum: 0.5% AlbuMAX,0.0774 µM
same,EC50 asexual blood stage growth,[2]; [6],0.0388 µM
CC(C)(C)NCc1cc(C(C)(C)C)cc(-c2ccc(Cl)cc2)c1O,EC50 asexual blood stage growth,[1],0.0141 µM
same,EC50 asexual blood stage growth,[2]; serum: 0.5% AlbuMAX,0.002 µM
same,EC50 asexual blood stage growth,[2]; [6],0.0068 µM
Cc1ncc(-c2ccnc(Nc3ccc(S(C)(=O)=O)cc3)n2)n1C(C)C,EC50 hypnozoite quantity,[3]; [7],> 50 µM
same,EC50 schizont net growth area,[3]; [7],> 50 µM
same,CC20 hepatic nuclei,[4]; [7],1.82 µM
same,maximum inhibition,[5]; [7],69.4%
Cc1c(Oc2cnc(C(=O)N3CC(C)(O)C3)cn2)ccc2c1B(O)OC2,EC50 hypnozoite quantity,[3]; [8],> 1.11 µM
same,EC50 schizont net growth area,[3]; [8],1.63 µM
same,CC20 hepatic nuclei,[4]; [8],> 10 µM
same,maximum inhibition,[5]; [8],99.7%
Cc1cc(Nc2ccc(C(F)(F)F)nc2)n2nc(C(C)(F)F)nc2n1,EC50 hypnozoite quantity,[3]; [8],> 10 µM
same,EC50 schizont net growth area,[3]; [8],0.325 µM
same,CC20 hepatic nuclei,[4]; [8],> 10 µM
same,maximum inhibition,[5]; [8],98.8%
CCc1cc(=O)n(C)c(SC(C)C(=O)Nc2ccc(F)cc2)n1 (stereo not given),EC50 hypnozoite quantity,[3]; [7],> 50 µM
same,EC50 schizont net growth area,[3]; [7],> 16.7 µM
same,CC20 hepatic nuclei,[4]; [7],> 50 µM
same,maximum inhibition,[5]; [7],87.6%
CN(C)C(=S)NN=C1C(=O)Nc2ccccc21,EC50 schizont net growth area,[3]; [7],> 16.7 µM
same,CC20 hepatic nuclei,[4]; [7],40.3 µM
same,maximum inhibition,[5]; [7],66.1%
COc1cccc(C=Cc2nc(=O)c3ccccc3o2)c1OC,EC50 hypnozoite quantity,[3]; [8],> 10 µM
same,CC20 hepatic nuclei,[4]; [8],> 10 µM
same,maximum inhibition,[5]; [8],62.6%
CS(=O)(=O)c1cccc(-c2cnc3[nH]cc(-c4ccc(CCC(=O)O)cc4)c3c2)c1,EC50 hypnozoite quantity,[3]; [7],> 50 µM
same,EC50 schizont net growth area,[3]; [7],0.418 µM
same,CC20 hepatic nuclei,[4]; [7],> 50 µM
same,maximum inhibition,[5]; [7],99.2%
Cc1sc2ncnc(Sc3nnc(N)s3)c2c1C,EC50 hypnozoite quantity,[3]; [9],> 50 µM
same,EC50 schizont net growth area,[3]; [9],> 5.56 µM
same,CC20 hepatic nuclei,[4]; [9],> 16.7 µM
same,maximum inhibition,[5]; [9],86.8%
O=C(Nc1ccc(N2CCNCC2)cc1)c1ccn2ncc(-c3cccc(Cl)c3)c2n1,EC50 hypnozoite quantity,[3]; [7],> 50 µM
same,EC50 schizont net growth area,[3]; [7],> 50 µM
same,CC20 hepatic nuclei,[4]; [7],> 1.85 µM
same,maximum inhibition,[5]; [7],45.8%
O=C(Nc1cc(C(F)(F)F)cc(C(F)(F)F)c1)Nc1ccc(Cl)c(Cl)c1,EC50 hypnozoite quantity,[3]; [9],> 50 µM
same,CC20 hepatic nuclei,[4]; [9],> 5.56 µM
same,maximum inhibition,[5]; [9],51.2%
CN(Cc1cnc2nc(N)nc(N)c2n1)c1ccc(C(=O)N[C@@H](CCC(=O)O)C(=O)O)cc1 (racemic) [Methotrexate (+/-)],EC50 hypnozoite quantity,[3]; [8],> 10 µM
same,EC50 schizont net growth area,[3]; [8],0.0428 µM
same,CC20 hepatic nuclei,[4]; [8],> 10 µM
same,maximum inhibition,[5]; [8],99.1%
Cc1nn(C)c(NC(=O)Cn2c(C(C)C)nc3ccccc32)c1-c1ccc(Cl)cc1F [21A092],EC50 asexual blood stage growth,[1],0.0148 µM
same,EC50 asexual blood stage growth,[2]; serum: 0.5% AlbuMAX,0.007 µM
same,EC50 asexual blood stage growth,[2]; [6],0.0794 µM
Cc1c(Oc2cnc(C(=O)N3CC(C)(O)C3)cn2)ccc2c1B(O)OC2 [AN762],EC50 asexual blood stage growth,[1],0.101 µM
same,EC50 asexual blood stage growth,[2]; serum: 0.5% AlbuMAX,1.75 µM
same,EC50 asexual blood stage growth,[2]; [6],2.2 µM
Cc1c(CCO)sc[n+]1CCCCCCCCCCCC[n+]1csc(CCO)c1C [Albitiazolium],EC50 asexual blood stage growth,[1],0.0144 µM
same,EC50 asexual blood stage growth,[2]; serum: 0.5% AlbuMAX,0.367 µM
same,EC50 asexual blood stage growth,[2]; [6],0.144 µM
"c1cc(C2CCC3(CC2)OOC2(O3)C3CC4CC(C3)CC2C4)ccc1OCCN1CCOCC1 (stereo not given) [Artefenomel, OZ439]",EC50 hypnozoite quantity,[3]; [10],> 50 µM
same,EC50 schizont net growth area,[3]; [10],6.89 µM
same,CC20 hepatic nuclei,[4]; [10],> 16.7 µM
same,maximum inhibition,[5]; [10],80.3%
c1cc(C2CCC3(CC2)OOC2(O3)C3CC4CC(C3)CC2C4)ccc1OCCN1CCOCC1 (stereo not given) [Artefenomel],EC50 asexual blood stage growth,[1],0.0424 µM
same,EC50 asexual blood stage growth,[2]; serum: 0.5% AlbuMAX,0.0034 µM
same,EC50 asexual blood stage growth,[2]; [6],0.0023 µM
"CC(C)(N)CNC(=O)CC1CCC2(CC1)OOC1(O2)C2CC3CC(C2)CC1C3 (stereo not given) [Arterolane, OZ277]",EC50 hypnozoite quantity,[3]; [11],> 10 µM
same,EC50 schizont net growth area,[3]; [11],> 10 µM
same,CC20 hepatic nuclei,[4]; [11],> 10 µM
same,maximum inhibition,[5]; [11],51.4%
CC[C@H]1OC(=O)[C@H](C)C(=O)[C@H](C)[C@@H](O[C@@H]2O[C@H](C)C[C@H](N(C)C)[C@H]2O)[C@](C)(OCC=Cc2cnc3ccccc3c2)C[C@@H](C)C(=O)[C@H](C)[C@H]2N=C(O)O[C@@]21C [Cethromycin],EC50 hypnozoite quantity,[3]; [8],> 10 µM
same,CC20 hepatic nuclei,[4]; [8],> 10 µM
same,maximum inhibition,[5]; [8],63.3%
CCN(CC)CCCC(C)Nc1ccnc2cc(Cl)ccc12 (stereo not given) [Chloroquine Diphosphate],EC50 hypnozoite quantity,[3]; [8],> 16.7 µM
same,EC50 schizont net growth area,[3]; [8],> 5.56 µM
same,CC20 hepatic nuclei,[4]; [8],> 16.7 µM
same,maximum inhibition,[5]; [8],99.1%
O=C(O)c1cn(C2CC2)c2cc(N3CCNCC3)c(F)cc2c1=O [Ciprofloxacin],EC50 hypnozoite quantity,[3]; [10],> 10 µM
same,EC50 schizont net growth area,[3]; [10],> 10 µM
same,CC20 hepatic nuclei,[4]; [10],> 10 µM
same,maximum inhibition,[5]; [10],59.2%
CCC[C@@H]1C[C@@H](C(=O)N[C@@H]([C@H]2O[C@H](SC)[C@H](O)[C@@H](O)[C@H]2O)[C@H](C)Cl)N(C)C1 [Clindamycin hydrochloride],EC50 hypnozoite quantity,[3]; [8],> 50 µM
same,EC50 schizont net growth area,[3]; [8],0.00597 µM
same,CC20 hepatic nuclei,[4]; [8],> 50 µM
same,maximum inhibition,[5]; [8],79.5%
CC1CC(C)C(=O)C(C(O)CC2CC(=O)NC(=O)C2)C1 (stereo not given) [Cycloheximide],EC50 hypnozoite quantity,[3]; [12],> 10 µM
same,EC50 schizont net growth area,[3]; [12],0.0856 µM
same,EC50 hypnozoite quantity,[3]; [8],> 3.33 µM
same,EC50 schizont net growth area,[3]; [8],1.39 µM
same,CC20 hepatic nuclei,[4]; [12],> 10 µM
same,CC20 hepatic nuclei,[4]; [8],> 10 µM
same,maximum inhibition,[5]; [12],96.3%
same,maximum inhibition,[5]; [8],99.6%
C[C@H]1c2cccc(O)c2C(=O)C2=C(O)[C@]3(O)C(=O)C(C(N)=O)=C(O)[C@@H](N(C)C)C3[C@@H](O)C21 (stereo not given in full) [Doxycycline hydrochloride],EC50 hypnozoite quantity,[3]; [8],> 10 µM
same,EC50 schizont net growth area,[3]; [8],> 0.37 µM
same,CC20 hepatic nuclei,[4]; [8],> 10 µM
same,maximum inhibition,[5]; [8],68.3%
CCC(C)C1OC2(CCC1C)CC1CC(CC=C(C)C(OC3CC(OC)C(OC4CC(OC)C(O)C(C)O4)C(C)O3)C(C)C=CC=C3COC4C(O)C(C)=CC(C(=O)O1)C34O)O2 (stereo not given) [Ivermectin],EC50 hypnozoite quantity,[3]; [13],> 10 µM
same,EC50 schizont net growth area,[3]; [13],> 3.33 µM
same,CC20 hepatic nuclei,[4]; [13],> 10 µM
same,maximum inhibition,[5]; [13],69.8%
CC1(C)c2nc(-c3ccc(F)cc3)c(Nc3ccc(F)cc3)n2CCN1C(=O)CN [KAF156],EC50 hypnozoite quantity,[3]; [14],> 1 µM
same,EC50 schizont net growth area,[3]; [14],0.33 µM
same,EC50 hypnozoite quantity,[3]; [15],0.0329 µM
same,EC50 schizont net growth area,[3]; [15],0.0141 µM
same,CC20 hepatic nuclei,[4]; [14],> 1 µM
same,CC20 hepatic nuclei,[4]; [15],> 10 µM
same,maximum inhibition,[5]; [14],93.2%
same,maximum inhibition,[5]; [15],103%
CCC(C(=O)C(C)C(O)C(C)CCc1ccc(C)c(O)c1C(=O)[O-])C1OC(CC)(C2CCC(O)(CC)C(C)O2)CC1C.[Na+] (stereo not given) [Lasalocid-A],EC50 hypnozoite quantity,[3]; [11],1.05 µM
same,EC50 schizont net growth area,[3]; [11],0.0431 µM
same,CC20 hepatic nuclei,[4]; [11],> 10 µM
same,maximum inhibition,[5]; [11],100%
COC1CC(OC2CC(C3OC(C)(O)C(C)CC3C)OC2C2(C)CCC(C3(C)CCC4(CC(O)C(C)C(C(C)C5OC(O)(CC(=O)O)C(C)C(OC)C5OC)O4)O3)O2)OC(C)C1OC.N (stereo not given) [Maduramicin],EC50 hypnozoite quantity,[3]; [16],0.0225 µM
same,EC50 schizont net growth area,[3]; [16],0.000705 µM
same,CC20 hepatic nuclei,[4]; [16],2.59 µM
same,maximum inhibition,[5]; [16],101%
CCC(C(=O)O)C1OC(C(C)C(O)C(C)C(=O)C(CC)C2OC3(C=CC(O)C4(CCC(C)(C5CCC(O)(CC)C(C)O5)O4)O3)C(C)CC2C)C(C)CC1C (stereo not given) [Narasin],EC50 hypnozoite quantity,[3]; [16],0.0646 µM
same,EC50 schizont net growth area,[3]; [16],0.0075 µM
same,CC20 hepatic nuclei,[4]; [16],8.8 µM
same,maximum inhibition,[5]; [16],101%
N=C(N)c1ccc(OCCCCCOc2ccc(C(=N)N)cc2)cc1 [Pentamidine isethionate],EC50 hypnozoite quantity,[3]; [8],5.54 µM
same,EC50 schizont net growth area,[3]; [8],0.551 µM
same,EC50 hypnozoite quantity,[3]; [17],> 50 µM
same,EC50 schizont net growth area,[3]; [17],8.39 µM
same,CC20 hepatic nuclei,[4]; [8],5.54 µM
same,CC20 hepatic nuclei,[4]; [17],> 5.56 µM
same,maximum inhibition,[5]; [8],99.6%
same,maximum inhibition,[5]; [17],94.4%
CCC(C(=O)O)C1CCC(C)C(C(C)C(O)C(C)C(=O)C(CC)C2OC3(C=CC(O)C4(CCC(C)(C5CCC(O)(CC)C(C)O5)O4)O3)C(C)CC2C)O1 (stereo not given) [Salinomycin],EC50 hypnozoite quantity,[3]; [18],0.112 µM
same,EC50 schizont net growth area,[3]; [18],0.0402 µM
same,CC20 hepatic nuclei,[4]; [18],> 10 µM
same,maximum inhibition,[5]; [18],102%
